Data reported in ChEMBL document CHEMBL1201862, “PubChem BioAssay data set” (2004).
Active and inactive are the calls of the source. Rule as the data show it: actives have a measured IC50 and inactives only a lower limit.

Target: Envelope glycoprotein gp160 (Human immunodeficiency virus 1, UniProt Q6QLK5)
Assay: cell-free HIV fusion peptide-binding blockers – biochemical, uHTS, fluorescence dequenching, […] (AID 1986)

Sequence of Envelope glycoprotein gp160 (Q6QLK5 whole entry, the tested form may be a part): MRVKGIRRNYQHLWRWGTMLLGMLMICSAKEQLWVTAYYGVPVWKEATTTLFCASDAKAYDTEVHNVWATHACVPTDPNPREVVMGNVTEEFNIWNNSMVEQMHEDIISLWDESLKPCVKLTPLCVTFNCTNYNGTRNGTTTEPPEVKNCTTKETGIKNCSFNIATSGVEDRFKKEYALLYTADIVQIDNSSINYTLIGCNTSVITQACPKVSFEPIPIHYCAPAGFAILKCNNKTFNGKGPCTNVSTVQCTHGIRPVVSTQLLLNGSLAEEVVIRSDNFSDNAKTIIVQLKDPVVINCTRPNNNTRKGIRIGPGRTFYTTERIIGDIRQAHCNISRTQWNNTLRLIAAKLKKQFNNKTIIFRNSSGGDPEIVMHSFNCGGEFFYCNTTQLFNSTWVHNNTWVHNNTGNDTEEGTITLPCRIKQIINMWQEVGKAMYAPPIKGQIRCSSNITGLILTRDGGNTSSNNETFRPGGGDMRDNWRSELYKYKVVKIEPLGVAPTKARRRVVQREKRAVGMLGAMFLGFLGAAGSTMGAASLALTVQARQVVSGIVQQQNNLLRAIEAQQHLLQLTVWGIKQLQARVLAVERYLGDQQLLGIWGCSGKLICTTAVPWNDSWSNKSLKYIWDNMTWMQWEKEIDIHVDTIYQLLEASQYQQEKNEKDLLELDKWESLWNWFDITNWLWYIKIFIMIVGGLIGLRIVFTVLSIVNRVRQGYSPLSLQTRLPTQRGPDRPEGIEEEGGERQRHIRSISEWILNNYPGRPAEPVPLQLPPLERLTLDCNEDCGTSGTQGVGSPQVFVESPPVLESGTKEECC

**Q.** For CCOc1cc(/C=C2/C(=N)N3C(=NC2=O)SN=C3S(=O)(=O)CC)ccc1OC(=O)c1ccco1, which IC50 is on record?
**A.** 19.3 µM (active)
